Patent US9241964B2, “Composition from Sphaeranthus indicus and Garcinia mangostana for the control of metabolic syndrome” (LAILA NUTRACEUTICALS, priority 2009, dated 2016)
Values after ≈ are worked out from the molar mass of the structure shown.

Assays:
[1] = system: 3T3-L1 mouse pre-adipocyte cells; test: Inhibition of lipid accumulation in differentiated adipocytes (Oil Red O); assay type: cell-based; conditions: Mus musculus; at 0.5 μg/ml; 3T3-L1 (Table I)
Protocol: The inhibition of fat accumulation in the treated cells was compared with the mock treated differentiated adipocytes and percentage inhibition was measured.
One hundred thousand 3T3-L1 […] pre-adipocyte cells in Dulbecco's Modified Eagles Medium (DMEM) containing 10% Fetal Bovine Serum (FBS) were taken into each well of a 24-well plate and incubated for 48 h at 37° C. and 5% CO2. The differentiation of pre-adipocyte cells was initiated in a differentiation medium containing 10 μg/ml insulin, 1.0 μM dexamethasone, and 0.5 mM isobutylmethylxanthine (IBMX) for 48 h. After this the medium was replaced by DMEM containing 10 μg/ml insulin and incubated for 3 days. Then the differentiating cells were treated 10 μg/ml of Sphaeranthus indicus ethyl acetate extract (LI/DD-II/054A/01) and 0.5 μg/ml of 7-hydroxyfrullanolide (LI054A01) and maintained in the medium for another 3-5 days. The cells incubated with 0.1% DMSO were considered as the vehicle control. After the incubation period, cells were washed with phosphate buffered saline (PBS) and fixed with 10% buffered formalin for 1 h at room temperature. One small aliquot of cell suspension was separated for cell counting in hemocytometer chamber. Fixed cells were stained with Oil Red O solution to measure the cellular neutral lipid accumulation. Briefly, cells were washed with PBS, fixed with 10% buffered formalin and stained with Oil Red O solution (0.5 g in 100 ml isopropanol) for 10 min. After removing the staining solution, the dye retained in the cells will be eluted into isopropanol and OD measured at 550 nm. The inhibition of fat accumulation in the treated cells was compared with the mock treated differentiated adipocytes. The treated and control cells were also analyzed and compared for inhibition of lipid accumulation visually under microscope and recorded digitally in suitable image capture system. The anti-adipogenic activities shown by Sphaeranthus Indicus ethyl acetate extract (LI/DD-II/054A/01) and LIO054A01 are summarized in the following table.

[2] = system: Matrix Metalloproteinase-3 (MMP-3); test: Inhibition of MMP-3 production in IL-1β induced A549 cells (ELISA); assay type: cell-based; conditions: 10 ng/mL IL-1β induced A549 human lung tumor cells, 24 h, supernatant ELISA
Protocol: A549 cells were induced with 10 ng/ml human IL-1β in absence or presence of different concentrations of LI/DD-II/054A/01 for 24 h as indicated. Secreted MMP-3 concentration in the cell free culture supernatants was measured using MMP-3 ELISA Development Kit (R&D System, Minneapolis, Minn., USA). The MMP-3 concentration in culture supernatants was estimated quantitatively from the standard curve generated using known concentrations of MMP-3. Percentage of MMP-3 inhibition at each concentration of test compound was calculated from the formula: {(Conc. of MMP-3 in IL-1β induced−Conc. of MMP-3 in the test well)×100}÷Conc. of MMP-3 in IL-1β induced wells.
MMP-3 was evaluated in Interleukin-1β induced human lung tumor cell line A549. Briefly, the cells were cultured in DMEM with 2 mM Glutamine, 100 U/mL penicillin, […] streptomycin and 10% fetal bovine serum (Hyclone, Logan, Utah). Five thousand cells per well were seeded into a 96-well cell culture plate (Corning, USA) one day before the experiment. The culture media was replaced with fresh DMEM containing 10% fetal bovine serum. […] The MMP-3 concentration in culture supernatant was estimated quantitatively by interpolating the optical densities into the standard curve generated from known concentrations of MMP-3. […]

- IC50 against MMP-3 [2]: 0.075 µg/mL (≈ 0.302 µM)
Structure (SMILES): C=C1C(=O)O[C@H]2C3=C(C)CCC[C@]3(C)CC[C@@]12O [LI054A01, 7-α-hydroxy-4,11(13)-eudesmadien-12,6-olide]
- inhibition at 0.5 µg/mL [1]: 68.7%
